By IC50 is commonly meant the concentration that gives 50% inhibition.

Experimental findings from BindingDB's records for patent US20230348467 (Zhejiang Hisun Pharmaceutical, 2023) are described below.

This assay has as its target T1, Tyrosine-protein phosphatase non-receptor type 11 (Homo sapiens, UniProt Q06124).
T1 sequence (Q06124 whole entry): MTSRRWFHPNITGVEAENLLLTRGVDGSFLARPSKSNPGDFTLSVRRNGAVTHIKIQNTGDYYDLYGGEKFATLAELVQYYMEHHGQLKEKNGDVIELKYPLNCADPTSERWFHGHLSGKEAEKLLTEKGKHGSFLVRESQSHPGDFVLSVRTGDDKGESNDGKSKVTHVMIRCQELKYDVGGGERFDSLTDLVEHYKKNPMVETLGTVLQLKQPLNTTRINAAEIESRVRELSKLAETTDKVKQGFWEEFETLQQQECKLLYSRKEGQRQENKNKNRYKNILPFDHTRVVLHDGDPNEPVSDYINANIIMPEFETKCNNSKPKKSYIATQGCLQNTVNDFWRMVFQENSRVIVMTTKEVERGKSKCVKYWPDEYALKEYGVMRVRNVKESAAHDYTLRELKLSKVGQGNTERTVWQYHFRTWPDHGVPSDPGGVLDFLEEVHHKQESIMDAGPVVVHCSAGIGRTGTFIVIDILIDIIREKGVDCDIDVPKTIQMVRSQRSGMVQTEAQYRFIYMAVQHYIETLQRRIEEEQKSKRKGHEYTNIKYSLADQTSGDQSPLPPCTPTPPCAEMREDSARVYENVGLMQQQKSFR
The experiment in a line: Determination of Allosteric Inhibition Activities of the Compounds of the Present Invention on SHP2. As to the method:
he experimental process was briefly described as follows: Test compounds were first dissolved in DMSO to prepare storage solutions. […] Then, the compounds to be tested were added in a concentration range of 0.00004-10 uM and incubated at 25 C. for 60 minutes. Then DiFMUP (Thermo, D6567) was added in the reaction and incubated at 25 C. for 30 minutes. After incubation, readings were taken using a microplate reader (BMG) with excitation and emission wavelengths of 340 nm and 450 nm, respectively.

The structures appear in SMILES notation.

`NC1(c2ccccc2)CCN(c2nc(C(=O)O)c3c(-c4cccc(Cl)c4Cl)n[nH]c3n2)CC1` [US20230348467, Compound 10]: the IC50 turned out to be 7 nM.

On to `NC(=O)c1nc(N2C3CCC2CC(N)C3)nc2[nH]nc(-c3cccc(Cl)c3Cl)c12` (stereo not drawn) [US20230348467, Compound 17], for which 4 nM corresponded to half-maximal inhibition (IC50). With `NC(=O)c1nc(N2CCC(N)(c3cccc(O)c3)CC2)nc2[nH]nc(-c3cccc(Cl)c3Cl)c12` [US20230348467, Compound 51], 3 nM corresponded to half-maximal inhibition (IC50).
